Measured values as given in patent US12173350B2, “Chemiluminescent probes for imaging/detection of proteases” (RAMOT AT TEL-AVIV UNIVERSITY LTD., priority 2017, dated 2024).
“Also recorded” adds a separate entry of the source.

Tests used:
cathepsin B [1] = molecular target: T1, cathepsin B (Homo sapiens, UniProt P07858); assay: Chemiluminescence kinetic profile of probes with or without cathepsin B in activity buffer; type: biochemical; details: probe 1 μM, activity buffer pH 7.4, 10% DMSO, 2.5 units/mL cathepsin B, room temperature
Method: FIGS. 1A-1C show the chemiluminescence kinetic profiles of probes 1, 2, 3 and 4 [1 μM] in activity buffer (pH 7.4, 10% DMSO) in the presence of 2.5 units/mL cathepsin B at room temperature (1A; the inset focuses on the kinetic profile of probe 1); the total light emitted from each probe (1B); and the maximal signal yielded by each probe (1C).
(§1) The activity buffer contained: phosphate buffer 0.1M, 55 mM NaCl, 1 mM EDTA, 5 mM glutathione. All spectroscopic measurements were conducted in triplicates. The blank measurements for limit of detection calculation were repeated ten times. Limit of detection (LOD) was calculated as such: LOD=Meanblank+3×SD wherein SD—standard deviation.
Next, chemiluminescence emission of the probes, as a function of time was measured, with or without the addition of cathepsin B. The kinetic profiles of the chemiluminescence signals and their relative total-photon emissions are shown in FIGS. 1A and 1B, respectively. […] From then on, a pattern of increased chemiluminescent signal is seen, correlating to the addendum change and the improved probe solubility in aqueous media. Evaluating the probes for forthcoming cell imaging required us to also assess the maximal signal yielded by each probe, as it will culminate in higher sensitivity and resolution (FIG. 1C). The maximal signal of the different probes pales in comparison to that of probe 4, making it the leading choice for further investigation. No light emission was observed from the probes in the absence of cathepsin B.

3T3 normal cells = assay: Chemiluminescence microscopy imaging of cathepsin B activity in 3T3 normal cells; type: cell-based, mouse; details: 3T3 cells, probe 5 μM, LV200 microscope, 20 min exposure
Method: (§2) Images were obtained following 30 min incubation with cell culture medium containing either probe 3 or probe 4 (5 μM), and were taken using the LV200 Olympus microscope using a 60× objective and 20 min exposure time. Chemiluminescence microscopy image and transmitted light image of […] cells incubated with probe 3 (a and b, respectively); Chemiluminescence microscopy image and transmitted light image of […] cells incubated with probe 4 (c and d, respectively); Chemiluminescence microscopy image and transmitted light image of CT26 cells incubated with probe 3 (e and f, respectively); Chemiluminescence microscopy image and transmitted light image of CT26 cells incubated with probe 4 (g and h, respectively); Chemiluminescence microscopy image and transmitted light image of 3T3 cells incubated with probe 3 (i and j, respectively); Chemiluminescence microscopy image and transmitted light image of 3T3 cells incubated with probe 4 (k and l, respectively).
(§3) Chemiluminescence images were acquired using Olympus LV200 inverted microscope fitted with an EMCCD camera (Hamamatsu C9100-13). […] For visualization of chemiluminescence emission, images were recorded with 20 minutes exposure times. […]

Raw 264.7 cells = assay: Chemiluminescence microscopy imaging of cathepsin B activity in Raw 264.7 cells; type: cell-based, murine; details: probe 5 μM, LV200 microscope, 20 min exposure
Method: as §2, §3

CT26 tumor cells = assay: Chemiluminescence microscopy imaging of cathepsin B activity in CT26 tumor cells; type: cell-based; details: probe 5 μM, LV200 microscope, 20 min exposure
Method: as §2, §3

cathepsin B [2] = molecular target: T1, cathepsin B; assay: Sensitivity (limit of detection) of probes to detect cathepsin B, signal/noise vs enzyme concentration; type: biochemical; details: for limit of detection (LOD) of cathepsin B: LOD = mean blank + 3×SD
Method: as §1
The sensitivity of probe 4 to detect cathepsin B was measured and compared to that of a classic fluorescent probe (Z-Val-Cit-PABA-7HC) based on 7-hydroxy-coumarin To directly view the comparison between the two detection methods, signal/noise ratio using different cathepsin B concentrations was plotted against enzyme concentration using logarithmic scales (FIG. 4).

cathepsin B [3] = molecular target: T1, cathepsin B; assay: HPLC analysis of the enzymatic degradation of the probe by cathepsin B; type: biochemical; details: probe 10 μM, activity buffer pH 7.4, 10% DMSO, 2.5 U/mL cathepsin B
Source text: To confirm the connection between the enzymatic degradation and chemiluminescent signal of the probes, HPLC was used to follow the enzymatic degradation of probe 4.

limit of detection (LOD) of cathepsin B (cathepsin B [2]; fluorescence) [U/mL] | Compound | chemiluminescence emission (signal) upon addition of cathepsin B (cathepsin B [1]) | chemiluminescence signal in cell imaging (3T3 normal cells) | chemiluminescence signal in cell imaging (Raw 264.7 cells) | chemiluminescence signal in cell imaging (CT26 tumor cells) | limit of detection (LOD) of cathepsin B (cathepsin B [2]; chemiluminescence) [μU/mL] | superior sensitivity vs. fluorescent probe Z-Val-Cit-PABA-7HC (cathepsin B [2]; ratio of LOD values) | enzymatic degradation followed by HPLC (cathepsin B [3])
– | COC1(c2cccc(OCc3ccc(NC(=O)C(CCCNC(N)=O)NC(=O)C(NC(=O)OCc4ccccc4)C(C)C)cc3)c2Cl)OOC12C1CC3CC(C1)CC2C3 (centres unmarked) [Probe 1] | extremely weak emission | – | – | – | – | – | –
– | COC(=O)/C=C/c1ccc(C2(OC)OOC23C2CC4CC(C2)CC3C4)c(Cl)c1OCc1ccc(NC(=O)C(CCCNC(N)=O)NC(=O)C(NC(=O)OCc2ccccc2)C(C)C)cc1 (centres unmarked) [Probe 2] | distinct increase in the chemiluminescent signal | – | – | – | – | – | –
– | COCCOCCOCCOCCOCCOCCOCCOCCOCCOCCOCCOCCOCCOCCOCCOCCOCCOC(=O)NC(C(=O)NC(CCCNC(N)=O)C(=O)Nc1ccc(COc2c(/C=C/C(=O)OC)ccc(C3(OC)OOC34C3CC5CC(C3)CC4C5)c2Cl)cc1)C(C)C (centres unmarked) [Probe 3] | distinct increase in the chemiluminescent signal; also recorded: highest light emission | no chemiluminescence signal | no chemiluminescence signal | no chemiluminescence signal | – | – | –
– | COC(=O)/C=C/c1ccc(C2(OC)OOC23C2CC4CC(C2)CC3C4)c(Cl)c1OCc1ccc(NC(=O)C(CCCNC(N)=O)NC(=O)C(NC(=O)CCCCCN2C(=O)CC(SC[C@@H](N)C(=O)NCC(=O)N[C@H](CCCCN)C(=O)N[C@H](CCCNC(=N)N)C(=O)N[C@H](CCCCN)C(=O)O)C2=O)C(C)C)cc1 (some centres unmarked) [Probe 4] | distinct increase in the chemiluminescent signal; also recorded: highest light emission | no chemiluminescence signal was observed | imaged via the chemiluminescence signal | imaged via the chemiluminescence signal | 76.29 | more than 16,000 fold | rapid enzymatic disassembly
1.25 | CC(C)C(NC(=O)OCc1ccccc1)C(=O)NC(CCCNC(N)=O)C(=O)Nc1ccc(COc2ccc3ccc(=O)oc3c2)cc1 (stereo not drawn) [Z-Val-Cit-PABA-7HC, reference compound] | – | – | – | – | – | – | –
